The target in data set [1] is T1, Corticotropin releasing factor receptor (Rattus norvegicus, UniProt P47866+P35353). Put plainly: In vitro binding affinity to the CRF receptor in rat cortical homogenates.
Data set [2] can be described thus: Maximal plasma concentration at a dose of 1 mg/kg. It is filed as ADME, organism-based, Canis lupus familiaris. Set-up: dose 1 mg/kg. To be noted: dog.
Data set [3] in a line: Half life was determined. The settings on record: dog, in vivo. It is filed as ADME, organism-based, Canis lupus familiaris.
The test system of a further data set is Rattus norvegicus. Kind of data set: Anxiolytic efficacy in rat after peroral administration. It is filed as functional. The settings on record: po.
A further data set has as its system Canis familiaris. Put plainly: Area under the curve at a dose of 1 mg/kg. It is filed as ADME, organism-based, Canis lupus familiaris. Details: dose 1 mg/kg. The settings on record: dog, in vivo.
Data set [4] deals with T1, Corticotropin releasing factor receptor. Kind of data set: In vitro binding affinity against Corticotropin releasing factor receptor in rat cortical homogenates.

The structures appear in SMILES notation.

In the case of `CCc1nc2c(-c3ccc(C(F)(F)F)cc3Cl)ccnc2n1C(CC)COC` (stereo unspecified), the inhibitory constant (Ki) (as a rule, the dissociation constant of the complex between target and ligand, obtained from inhibition or displacement) in data set [1] is given as 4.7 nM.

The molecule `CCCC(C)n1c(CC)nc2c(-c3ccc(/C(C)=N\OC)cc3Cl)ccnc21` (stereo unspecified) showed a Ki in data set [1] of 2.3 nM.

Consider `CCCC(C)n1c(CC)nc2c(-c3ccc(OC)cc3C(F)(F)F)ccnc21` (stereo unspecified), for which the Cmax (as a rule, the highest concentration seen after dosing) in data set [2] was 62 nM. In addition, the half-life (as a rule, how long it takes for the measured level to halve) in data set [3] was 354 min. Further, the ED50 (in general, the dose at which the effect has come halfway, by size or by number of responders) with Rattus norvegicus was determined as 3 mg/kg. Besides, the exposure (AUC) (usually the area under the concentration-time curve, a measure of exposure) in the data set on Canis familiaris is 182 nM·h. For the same molecule, the figures for the Ki in data set [4] and in data set [1] were 0.7 nM and 0.74 nM, respectively.

Regarding `CCc1nc2c(-c3ccc(Cl)cc3Cl)ccnc2n1C(CCOC)C1CCC1` (stereo unspecified), the Ki in data set [1] came out at 2.4 nM.

For `CCc1nc2c(-c3ccc(Cl)cc3Cl)ccnc2n1C(C)C1CCC1` (stereo unspecified), the Ki in data set [1] was determined as 1 nM.

In the case of `CCCC(C)n1c(C(F)F)nc2c(-c3ccc(Cl)cc3Cl)ccnc21` (stereo unspecified), in data set [1], the Ki came out at 15.8 nM.

For the molecule `CCc1nc2c(-c3ccc(Cl)cc3Cl)ccnc2n1C(CCOC)C1CC1` (stereo unspecified), the Ki in data set [1] is on record as 1.5 nM.

The molecule `CCc1nc2c(-c3ccc(Cl)cc3Cl)ccnc2n1[C@@H](CC)C1CC1` returned a Ki in data set [1] of 0.4 nM.

Regarding `CCC(CCOC)n1c(C2CC2)nc2c(-c3ccc(C(F)(F)F)cc3Cl)ccnc21` (stereo unspecified), the inhibitory constant (Ki) in data set [1] is reported as 20.8 nM.

For the molecule `CCCC(C)n1c(CC)nc2c(-c3ccc(Cl)cc3C(C)=O)ccnc21` (stereo unspecified), in data set [1], the inhibition constant Ki stood at 95.6 nM.

Regarding `CCc1nc2c(-c3ccc(OC(F)F)cc3Cl)ccnc2n1C(C)C1CCC1` (stereo unspecified), in data set [2], the Cmax was determined as 185 nM. This molecule also had a half-life in data set [3] of 600 min. For the same molecule, the ED50 in the data set on Rattus norvegicus was < 3 mg/kg. For the same molecule, the exposure (AUC) in the data set on Canis familiaris came out at 795 nM·h. In data set [4], the Ki was 0.7 nM.

In data set [1], `CCc1nc2c(-c3ccc(Cl)cc3Cl)ccnc2n1[C@H](C)C1CC1` had a Ki of 0.6 nM.

On to `CCCC(C)n1c(CC)nc2c(-c3cc(C)c(OC)cc3C)ccnc21` (stereo unspecified), for which, in data set [1], the Ki amounted to 0.6 nM.

Turning to `CCCC(C)n1c(CC)nc2c(-c3ccc(OC)cc3C)ccnc21` (stereo unspecified), the Ki in data set [1] came to 0.8 nM.

`CCc1nc2c(-c3ccc(Cl)cc3Cl)ccnc2n1[C@H](CC)C1CC1` gave a Ki in data set [1] of 0.2 nM.

Molecule `CCCC(C)n1c(CC)nc2c(-c3ccc(C(F)(F)F)cc3Cl)ccnc21` (stereo unspecified) had a Cmax in data set [2] of 159 nM. In addition, in data set [3], the half-life was 294 min. Moreover, the ED50 in the data set on Rattus norvegicus turned out to be 3 mg/kg. In addition, the AUC in the data set with Canis familiaris was found to be 604 nM·h. Also, the Ki in data set [4] and in data set [1] was 1.1 nM each time.

Molecule `CCC(CCOC)n1c(COC)nc2c(-c3ccc(C(F)(F)F)cc3Cl)ccnc21` (stereo unspecified) gave a Ki in data set [1] of 82.7 nM.

For `CCCC(C)n1c(CC)nc2c(-c3ccc(C(C)=O)cc3Cl)ccnc21` (stereo unspecified), the inhibitory constant (Ki) in data set [1] was found to be 1 nM.

As for `CCc1nc2c(-c3ccc(Cl)cc3Cl)ccnc2n1C(C)CC` (stereo unspecified), the Ki in data set [1] amounted to 1.3 nM.

With `CCCC(C)n1c(CC)nc2c(-c3ccc(C(C)O)cc3Cl)ccnc21` (stereo unspecified), the Ki in data set [1] came to 5.1 nM.

Regarding `CCC(CCOC)n1c(OC)nc2c(-c3ccc(OC(F)(F)F)cc3Cl)ccnc21` (stereo unspecified), the Ki in data set [1] worked out at 1.9 nM.

For the molecule `CCCC(C)n1c(CC)nc2c(-c3ccc(S(C)(=O)=O)cc3C(F)(F)F)ccnc21` (stereo unspecified), the Ki in data set [1] is on record as 6.8 nM.

With `CCCC(C)n1c(CC)nc2c(-c3ccc(C(C)OC)cc3Cl)ccnc21` (stereo unspecified), in data set [1], the Ki came out at 3.5 nM.

Take `CCCC(C)n1c(CC)nc2c(-c3ccc(SC)cc3C(F)(F)F)ccnc21` (stereo unspecified): in data set [1], the Ki worked out at 1.4 nM.

The molecule `CCc1nc2c(-c3ccc(C(F)(F)F)cc3Cl)ncnc2n1C(C1CC1)C1CC1` displayed a Ki in data set [1] of 1.8 nM.

Consider `CCc1nc2c(-c3ccc(Cl)cc3Cl)ccnc2n1C(CC)CC`, for which the Ki in data set [1] is reported as 1 nM.

The molecule `CCCC(C)n1c(CC)nc2c(-c3cc(F)c(F)cc3Cl)ccnc21` (stereo unspecified) returned a Ki in data set [1] of 2.4 nM.

Values taken from ChEMBL document CHEMBL1136411, “Imidazo[4,5-b]pyridines as corticotropin releasing factor receptor ligands” (Bioorg Med Chem Lett, 2003).
